Measured values: patent US20250359555A1, “STREPTOMYCES VENEZUELAE FOR THE BIOLOGICAL CONTROL OF PLANT DISEASES” (UNIVERSITA' DEGLI STUDI DI MODENA E REGGIO EMILIA (80%), priority 2022, published 2025)

Legend:
Fusarium spp. [1] = test: Field trial onion var. Elenka, emergence and bio-control under natural Fusarium spp. inoculum pressure (FC2020); format: in vivo; settings: for number of emerged seedlings: control 182.50; for number of emerged plants: fourth survey (97 days after the sowing)
Protocol: (§1) In this experiment, onion var. Elenka was tested. The test experimental design was organized at randomized blocks for the 4 treatment types, each in duplicate. In the extended test carried out at an experimental field with high natural pressure of fungal inoculum of Fusarium spp., the experimental plots had the following dimensions: 1.8 m (width)×25 m (length) with four sowing rows per parcel The sowing was performed with mechanical seeder (mod. SPX 2015-Bassi Seminatrici, IT) at the density of 600,000 onion seeds per hectare. The surveys were carried out on a length of 20 meters, in the medial part of each respective plot. The recorded data of disease severity were subjected to statistical analysis of the variance (one-way ANOVA). The results were compared to the post hoc Tukey's HDS test.
In the preparation phase before the sowing, the fields were not treated with herbicides or fungicides. During the experimental test, carried out following the agronomical good practices, harmful bacteria and insects' infections were not observed, causing damages to the cultures during the experiment. The weeds were controlled according to the disciplinary regulation described in Cornell Vegetable Management Guidelines and Recommendations (Reiners et al., 2019).
Samples of symptomatic material such as onion roots and bulbs were withdrawn during the cultural season for isolating Fusarium-like fungal colonies and the subsequent identification thereof and confirmation of the etiological agent, through a preliminary analysis of conidial identification at the microscope, followed by a molecular analysis. The molecular identification was carried out through the amplification of the conserved region ITS by polymerase chain reaction (PCR) according to White et al., 1990. The amplification products were then purified and sequenced at Bio-Fab Research s.r.l. (Rome, IT). The nucleotide sequences of ribosomal DNA of the conserved region ITS (Internal Transcription Spaces) were then analyzed through the program for the research of sequence similarity in the international DNA database BLAST (Basic Local Alignment Search Tool;//www.ncbi.nlm.nih.gov/BLAST).

fennel var. Crono [2] = test: Commercial field trial fennel var. Crono, emergence and germination (AQ2020); format: in vivo, Foeniculum vulgare
Source text: In this experiment, the fennel var. Crono was used, in order to study the effect of Streptomyces sp. DLS 1568, applied as microbial coating agent, on the emergence and germination of the crop.
The test experimental design was organized at randomized blocks for the 4 treatment types, each in duplicate (replicate). In the experimental test carried out at a plot, the experimental parcels had the following dimensions: 1.5 m (width)×100 m (length) with four sowing rows per plot. The sowing was carried out with a mechanical seeder. During the experimental field trials, conducted according to the best agronomical practices, harmful bacteria and insects' infections were not observed, causing damages to the cultures during the experiment. Weeds were controlled according to the farms' integrated weed management.
The first survey was carried out 20 days after the sowing, assessing the whole length of each plots. The second survey was carried out 32 days after seed sowing and the third and last survey was done after one month from the second survey. The recorded data were subjected to the statistical analysis of the variance (one-way ANOVA). The results were compared to the post hoc Tukey's HDS test.

onion var. Elenka = test: Field trial onion var. Elenka, agronomic features (phenological development) (FC2020); format: in vivo, Allium cepa
Protocol: as §1
For the assay description, experimental design, agronomic practices, see Example 7. Before sowing, the fields were not treated with herbicides or fungicides. During the experimental field trial, carried out according to the best agronomical practices, harmful bacteria and insects' infections were not observed, causing damages to the cultures during the experiment. The weeds were managed according to the disciplinary regulations described in Cornell Vegetable Management Guidelines and Recommendations (Reiners et al., 2019). […]

fennel var. Crono [3] = test: Field trial fennel var. Crono, emergence, germination and vigor (AQ2021); format: in vivo, Foeniculum vulgare; settings: for average vigor index: scale 1-4 (Table 8)
Protocol: For the field trial description, experimental design, and the applied agronomic practices, see Example 10.
For this experiment, sowing was carried out with mechanical seeder. The first survey was carried out 14 days after the sowing, assessing the whole length of each plot: 1.5 m (width)×100 m (length) with four sowing rows per plot. The second survey was carried out one month after sowing and the third and last survey two months after sowing, assessing both number of emerged plants and vigor according to the assessment scale described in Table 8. The recorded data were subjected to the statistical analysis of the variance (one-way ANOVA). The results were compared to the post hoc Tukey's HDS test.

Fusarium spp. [4] = test: Field trial onion var. Fundador, emergence and bio-control under natural Fusarium spp. inoculum pressure (FC2020); format: in vivo; settings: first survey (18 days after the sowing), control 178.12
Protocol: as §1
For trial description, experimental design, agronomic practices, see Example 7. […]. The recorded data were subjected to statistical analysis of the variance (one-way ANOVA). The results were compared to the post hoc Tukey's HDS test.

[5] = first survey (18 days after the sowing)
[6] = second survey (42 days after the sowing)

Compound | number of emerged seedlings (Fusarium spp. [1]; [5]) | number of emerged plants (Fusarium spp. [1]) | number of plants emerged (Fusarium spp. [1]; [6]) | Number of emerged plants, Survey 1 Average value (fennel var. Crono [2]; AQ2020, 20 days after the sowing, control 339.50) | Number of emerged plants, Survey 2 Average value (fennel var. Crono [2]; AQ2020, 32 days after sowing, after manual thinning, control 194.40) | Number of emerged plants, Survey 3 Average value (fennel var. Crono [2]; AQ2020, one month from the second survey, control 187.00) | plant height (onion var. Elenka; second survey) | Number of emerged plants, Survey 1 Average value (fennel var. Crono [3]; AQ2021, 14 days after the sowing, control 313.00) | Number of emerged plants, Survey 2 Average value (fennel var. Crono [3]; AQ2021, one month after sowing, after manual thinning, control 180.75) | average vigor index (fennel var. Crono [3]; AQ2021, second survey, control 2.34) | average vigor index (fennel var. Crono [3]; AQ2021, third survey, control 2.71) | Number of emerged plants, Survey 3 Average value (fennel var. Crono [3]; AQ2021, two months after sowing, control 173.00) | number of plants emerged (Fusarium spp. [4]) | increase of the germinal emergence with respect to the control (Fusarium spp. [1]; [5]) | increase of the germinal emergence with respect to the treatment with Streptomyces sp. SA51 (Fusarium spp. [1]; [5]) | increase of the germinal emergence with respect to the treatment with fludioxonil (Fusarium spp. [1]; [5]) | increase of number of emerged plants with respect to Streptomyces sp. SA51 (Fusarium spp. [1]; [6]) | increase of number of emerged plants with respect to fludioxonil (Fusarium spp. [1]; [6]) | number of leaves (onion var. Elenka; third survey)
N#Cc1c[nH]cc1-c1cccc2c1OC(F)(F)O2 [Fludioxonil, fludioxonil] | 175.63 | 72.75 | 147.00 | 339.50 | 217.30 | 198.62 | 10.11 cm | 323.88 | 205.00 | 2.49 | 3.01 | 186.63 | 210.12 | – | – | – | – | – | –
O=[O+][O-] [Ozone] | 214.63 | 119.17 | 207.88 | – | – | – | – | – | – | – | – | – | 185.87 | 17% | 26% | 22% | 51% | 41% | 4.69
